Consider 34 molecules from US12011444B2, “N-substituted indole derivatives as PGE2 receptor modulators” (Idorsia Pharmaceuticals Ltd, priority 2015, dated 2024).

For test [1], the target named is EP2 (Homo sapiens (Human), UniProt P43116).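 Further: antagonism of PGE2-stimulated cAMP accumulation in SF295 human glioblastoma cells with endogenous EP2, cAMP read by HTRF, expressed relative to DMSO control.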
In test [2] the target is EP4 (Homo sapiens (Human), UniProt P35408). Nature of the test: hEP4 cAMP assay (BT549 breast cancer cells, HTRF cAMP). The following applies: antagonistic activity; mean values where measured multiple times. The test is classed as cell-based. Here is the method: Plate is pre-incubated 45 minutes at room temperature. Subsequently, 2.5 microliters of PGE2 (final conc. 6 nM) are transferred into the assay plate. Plate is incubated 30 minutes at room temperature.

SMILES strings stand for the structures. pIC50: −log10 of the molar value.

Chain of EP4 (P35408 whole entry): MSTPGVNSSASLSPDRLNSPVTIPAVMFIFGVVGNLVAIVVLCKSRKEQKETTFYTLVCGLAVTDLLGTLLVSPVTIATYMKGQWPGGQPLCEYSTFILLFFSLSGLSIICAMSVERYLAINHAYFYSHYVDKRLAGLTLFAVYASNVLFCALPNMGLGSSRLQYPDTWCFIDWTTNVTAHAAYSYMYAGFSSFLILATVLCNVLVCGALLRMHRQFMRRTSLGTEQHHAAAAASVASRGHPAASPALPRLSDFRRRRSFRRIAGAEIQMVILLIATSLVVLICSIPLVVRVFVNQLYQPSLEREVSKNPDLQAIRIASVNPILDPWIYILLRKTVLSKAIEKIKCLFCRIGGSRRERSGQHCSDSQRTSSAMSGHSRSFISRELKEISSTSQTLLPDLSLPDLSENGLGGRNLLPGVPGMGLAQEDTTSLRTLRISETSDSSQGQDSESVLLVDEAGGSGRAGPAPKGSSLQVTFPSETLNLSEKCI
Chain of EP2 (P43116 whole entry): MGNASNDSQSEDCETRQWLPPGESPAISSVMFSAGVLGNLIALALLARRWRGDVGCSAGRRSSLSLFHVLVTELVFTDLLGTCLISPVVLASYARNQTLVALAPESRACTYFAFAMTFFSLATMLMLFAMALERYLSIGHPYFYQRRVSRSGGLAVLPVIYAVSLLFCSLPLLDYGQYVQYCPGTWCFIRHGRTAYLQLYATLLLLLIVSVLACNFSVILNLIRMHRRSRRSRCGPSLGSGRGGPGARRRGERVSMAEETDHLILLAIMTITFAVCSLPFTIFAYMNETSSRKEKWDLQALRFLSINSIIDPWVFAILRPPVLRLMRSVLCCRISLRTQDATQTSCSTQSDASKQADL

A word on the pIC50: it is −log10 of the IC50, conventionally taken in molar units. As to `Cc1ccc(F)c2c1cc(C)n2CCNc1cc(-c2ccc(C(=O)O)c(OC(F)(F)F)c2)ncn1` [compound 508], the values for the pIC50 in test [1] and in test [2] were 7.43 and 6.23, respectively.
Consider `Cc1cc(F)c(F)c2c1cc(C)n2CCNc1cc(-c2ccc(C(=O)O)c(CC(C)C)c2)ncn1` [compound 502], for which the results for the negative-log IC50 (pIC50) in test [1] and in test [2] were 6.83 and 6.94, respectively.
Take `Cc1nc(NCCn2c(C)cc3c(C)cc(F)cc32)cc(-c2cc(C(F)(F)F)c(C(=O)O)s2)n1` [compound 423]: the negative logarithm of the IC50 (pIC50) in test [1] is 7.36; in test [2], 7.46.
For `COc1cc(F)cc2c1cc(C)n2CCNc1cc(-c2cc(C(F)(F)F)c(C(=O)O)s2)ncn1` [compound 447], in that order: 7.55 and 7.57.
Take `CCCCOc1cc(-c2cc(NCCn3c(C)cc4c(OC)cc(F)cc43)ncn2)ccc1C(=O)O` [compound 611]: the pIC50 was 8.40 in test [1] and 7.25 in test [2].
As to `COc1ccc(F)c2c1cc(C)n2CCNc1cc(-c2ccc(C(=O)O)c(CC(C)C)c2)nc(C)n1` [compound 625], the negative-log IC50 (pIC50) in test [1] was 7.80; in test [2], 7.15.
In the case of `COc1cc(F)c(F)c2c1cc(C)n2CCNc1cc(-c2ccc3c(ccn3C)c2)ncn1` [compound 707, [2-(6,7-Difluoro-4-methoxy-2-methyl-indol-1-yl)-ethyl]-[6-(1-methyl-1H-indol-5-yl)-pyrimidin-4-yl]-amine], the pIC50 is 7.42 in test [1] and 7.24 in test [2].
Take `CCCCOc1cc(-c2cc(NCCn3c(C)cc4c(C)ccc(F)c43)ncn2)ccc1C(=O)O` [compound 533]: the pIC50 in test [1] is 8.52; in test [2], 7.06.
For the molecule `Cc1ccc(F)c2c1cc(C)n2CCNc1cc(-c2ccc3c(c2)OCCO3)ncn1` [compound 740], the negative-log IC50 (pIC50) in test [1] was 6.74; in test [2], 6.18.
For the molecule `COc1ccc(F)c2c1cc(C)n2CCNc1cc(-c2ccc3oc(C)nc3c2)ncn1` [compound 688], the pIC50 is 7.10 in test [1] and 6.17 in test [2].
For `Cc1cc2c(Cl)cc(Cl)cc2n1CCNc1cc(-c2ccc(-c3noc(=O)[nH]3)cc2)ncn1` [compound 681, 3-(4-{6-[2-(4,6-Dichloro-2-methyl-indol-1-yl)-ethylamino]-pyrimidin-4-yl}-phenyl)-4H-[1,2,4]oxadiazol-5-one], in that order: 7.85 and 6.61.
For `Cc1cc2ccccc2n1CCNc1cc(-c2ccc3[nH]ccc3c2)ncn1` [compound 695, [6-(1H-Indol-5-yl)-pyrimidin-4-yl]-[2-(2-methyl-indol-1-yl)-ethyl]-amine], in that order: 8.40 and 6.00.
As to `Cc1ccc(Cl)c2c1cc(C)n2CCNc1cc(-c2ccc(C(=O)O)c(SC(C)C)c2)ncn1` [compound 410], the negative logarithm of the IC50 (pIC50) in test [1] is 7.29; in test [2], 6.41.
For `Cc1nc(CCC(=O)O)oc1-c1ccc(-c2cc(NCCn3c(C)cc4c(C)ccc(F)c43)ncn2)cc1` [compound 648], in that order: 6.71 and 6.05.
Take `COc1ccc(F)c2cc(C)n(CCNc3cc(-c4ccc(C(=O)O)c(CC(C)C)c4)ncn3)c12` [compound 539]: the results for the pIC50 in test [1] and in test [2] were 6.80 and 6.02, respectively.
For `COc1cc(F)cc2c1cc(C)n2CCNc1cc(-c2ccc(-c3nc(C)cs3)cc2)ncn1` [Example 758, [2-(6-Fluoro-4-methoxy-2-methyl-indol-1-yl)-ethyl]-{6-[4-(4-methyl-thiazol-2-yl)-phenyl]-pyrimidin-4-yl}-amine], the pIC50 in test [1] was 7.49; in test [2], 6.95.
Consider `Cc1cc(F)cc2c1cc(C)n2CCNc1cc(-c2ccc(C(=O)O)c(OC(F)F)c2)ncn1` [compound 600], for which the pIC50 in test [1] was 7.85; in test [2], 6.50.
With `CCSc1cc(-c2cc(NCCn3c(C)cc4c(OC)c(F)cc(Cl)c43)ncn2)ccc1C(=O)O` [compound 542], the values for the negative-log IC50 (pIC50) in test [1] and in test [2] were 7.36 and 6.28, respectively.
For `Cc1cc(F)cc2c1cc(C)n2CCNc1cc(-c2ccc(-c3nnc(N)s3)cc2)ncn1` [compound 569], in that order: 7.77 and 7.11.
With `COc1c(F)ccc2c1cc(C)n2CCNc1cc(-c2ccc(C(=O)O)c(CC(C)C)c2)ncn1` [compound 538], the figures for the negative-log IC50 (pIC50) in test [1] and in test [2] were 7.19 and 6.58, respectively.
Consider `CCCOc1cc(-c2cc(NCCn3c(C)cc4c(C)cc(F)cc43)ncn2)cc(F)c1C(=O)O` [compound 524], for which the figures for the negative logarithm of the IC50 (pIC50) in test [1] and in test [2] were 7.44 and 6.42, respectively.
For `Cc1cc(F)cc2c1cc(C)n2CCNc1cc(-c2cc(Cl)c(C(=O)O)c(OCC(C)C)c2)ncn1` [compound 693], in that order: 7.70 and 6.63.
With `CCNc1cc(-c2cc(NCCn3c(C)cc4c(F)ccc(OC)c43)ncn2)ccc1C(=O)O` [compound 399], the pIC50 in test [1] was 7.77; in test [2], 6.32.
For `Cc1cc(F)cc2c1cc(C)n2CCNc1cc(-c2ccc(-c3ccccn3)cc2)ncn1` [compound 730], the values for the pIC50 in test [1] and in test [2] were 7.52 and 6.31, respectively.
For `COc1cccc2c1cc(C)n2CCNc1cc(-c2ccc(-c3nc(C(=O)O)cs3)cc2)ncn1` [compound 557], the results for the pIC50 in test [1] and in test [2] were 8.30 and 7.11, respectively.
For `Cc1cc2c(F)c(F)ccc2n1CCNc1cc(-c2ccc(C(=O)O)c(CC(C)C)c2)ncn1` [compound 411] the same measures were 7.70 and 6.35.
Consider `CCONC(=O)c1ccc(-c2cc(NCCn3c(C)cc4c(OC)ccc(F)c43)ncn2)cc1OCC` [Example 767, 2,N-Diethoxy-4-{6-[2-(7-fluoro-4-methoxy-2-methyl-indol-1-yl)-ethylamino]-pyrimidin-4-yl}-benzamide], for which the results for the pIC50 in test [1] and in test [2] were 7.70 and 6.60, respectively.
With `Cc1ccc(F)c2c1cc(C)n2CCNc1cc(-c2ccc(C(=O)O)c(Oc3ccc(F)cc3)c2)ncn1` [compound 650], the pIC50 in test [1] was 7.03; in test [2] it was 6.35.
Turning to `COc1ccc(Cl)c2c1cc(C)n2CCNc1cc(-c2ccc(C(=O)O)c(OC(F)(F)F)c2)ncn1` [compound 605], the pIC50 in test [1] is 7.32; in test [2], 6.08.
`CCCc1cc(-c2cc(NCCn3c(C)cc4c(OC)ccc(F)c43)ncn2)cc(F)c1C(=O)O` [compound 515]: the pIC50 in test [1] is 8.10; in test [2] it was 7.16.
Consider `CCOc1cc(-c2cc(NCCn3c(C)cc4c(Cl)ccc(F)c43)ncn2)cc(Cl)c1C(=O)O` [compound 450], for which the pIC50 was 8.05 in test [1] and 6.93 in test [2].
Regarding `COc1ccc(F)c2c1cc(C)n2CCNc1cc(-c2ccc(C(=O)O)c(OC3CCC3)c2)ncn1` [compound 472, 2-Cyclobutoxy-4-{6-[2-(7-fluoro-4-methoxy-2-methyl-indol-1-yl)-ethylamino]-pyrimidin-4-yl}-benzoic acid], the results for the negative-log IC50 (pIC50) in test [1] and in test [2] were 8.30 and 7.18, respectively.
On to `COc1cc(-c2ccc(-c3cc(NCCn4c(C)cc5c(OC)cc(F)cc54)ncn3)cc2)ncn1` [Example 749, [2-(6-Fluoro-4-methoxy-2-methyl-indol-1-yl)-ethyl]-{6-[4-(6-methoxy-pyrimidin-4-yl)-phenyl]-pyrimidin-4-yl}-amine], for which the pIC50 is 7.09 in test [1] and 6.37 in test [2].
Take `CCCc1cc(-c2cc(NCCn3c(C)cc4c(C)ccc(F)c43)ncn2)cc(F)c1C(=O)O` [compound 416]: the figures for the pIC50 in test [1] and in test [2] were 7.85 and 7.00, respectively.
